Here are results for 25 compounds from patent US20230121086A1, “RORgT INHIBITOR, PREPARATION METHOD THEREOF AND USE THEREOF” (SUNSHINE LAKE PHARMA CO., LTD., priority 2020, published 2023).

Structures are written as SMILES.

As usually defined, the IC50 is the concentration needed to halve the response being measured.

The assay has as its target T1, RORγt (Homo sapiens, UniProt P51449).
T1 construct: […]
T1 sequence (P51449 269-508 limits assumed): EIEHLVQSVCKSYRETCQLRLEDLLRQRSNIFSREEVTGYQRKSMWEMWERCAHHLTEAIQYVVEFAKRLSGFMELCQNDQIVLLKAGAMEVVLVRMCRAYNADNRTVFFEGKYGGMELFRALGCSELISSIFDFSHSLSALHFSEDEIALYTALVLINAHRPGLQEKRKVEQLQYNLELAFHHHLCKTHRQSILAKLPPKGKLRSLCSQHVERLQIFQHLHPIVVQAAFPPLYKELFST
The experiment in a line: Fluorescence resonance energy transfer (FRET) test, inhibitory activity of RORγt. The assay is classed as biochemical. The note with it: FRET, B-RORγt LBD / Biotin-SRC1; read-out: IC50.
Turning to `CCS(=O)(=O)c1ccc([C@H](CC(N)=O)NC(=O)c2ccc(N3C[C@@H](Oc4ccc(C(F)(F)F)cc4)C[C@H]3COC(F)F)cc2)cc1` [Example 98, N—((S)-3-amino-1-(4-(ethylsulfonyl)phenyl)-3-oxopropyl)-4-((2S,4S)-2-((difluoromethoxy)methyl)-4-(4-(trifluoromethyl)phenoxy)pyrrolidin-1-yl)benzamide], the IC50 was found to be 21 nM.

As to `CCS(=O)(=O)c1ccc([C@H](CC(=O)NCC(=O)OC)NC(=O)c2ccc(N3C[C@@H](Oc4ccc(C(F)(F)F)cc4)C[C@H]3COC(F)F)cc2)cc1` [Example 99, methyl 2-((S)-3-(4-((2S,4S)-2-((difluoromethoxy)methyl)-4-(4-(trifluoromethyl)phenoxy)pyrrolidin-1-yl)benzoylamino)-3-(4-(ethylsulfonyl)phenyl)propionamido)acetate], the half-maximal inhibitory concentration (IC50) is 25 nM. Regarding `CCS(=O)(=O)c1ccc([C@H](CC(=O)NCC(=O)O)NC(=O)c2ccc(N3C[C@@H](Oc4ccc(C(F)(F)F)cc4)C[C@H]3COC(F)F)cc2)cc1` [Example 100, 2-((S)-3-(4-((2S,4S)-2-((difluoromethoxy)methyl)-4-(4-(trifluoromethyl)phenoxy)pyrrolidin-1-)benzoylamino)-3-(4-(ethylsulfonyl)phenyl)propionamido)acetic Acid], the IC50 was 14 nM. With `CCS(=O)(=O)c1ccc([C@@H](NC(=O)c2ccc(N3C[C@@H](Oc4ccc(C(F)(F)F)cc4)C[C@H]3COC(F)F)cc2)C(=O)O)cc1` [Example 102, (R)-2-(4-((2S,4S)-2-((difluoromethoxy)methyl)-4-(4-(trifluoromethyl)phenoxy)pyrrolidin-1-yl)benzoylamino)-2-(4-(ethylsulfonyl)phenyl)acetic Acid], the IC50 turned out to be 4 nM. Under `CCS(=O)(=O)c1ccc([C@H](CN(C)C)NC(=O)c2ccc(N3C[C@@H](Oc4ccc(C(F)(F)F)cc4)C[C@H]3COC(F)F)cc2)cc1` [Example 103] stands 60 nM.

Take `CCS(=O)(=O)c1ccc([C@H](COCCOC)NC(=O)c2ccc(N3C[C@@H](Oc4ccc(C(F)(F)F)cc4)C[C@H]3COC(F)F)cc2)cc1` [Example 104]: the IC50 was found to be 12 nM. For the compound `CCS(=O)(=O)c1ccc([C@H](CCC(=O)O)NC(=O)c2ccc(N3C[C@@H](Oc4ccc(C(F)(F)F)cc4)C[C@H]3COC(F)F)cc2)cc1` [Example 105, (S)-4-(4-((2S,4S)-2-((difluoromethoxy)methyl)-4-(4-(trifluoromethyl)phenoxy)pyrrolidin-1-yl)benzoylamino)-4-(4-(ethylsulfonyl)phenyl)butyric Acid], the half-maximal inhibitory concentration (IC50) was 7 nM. Turning to `CCS(=O)(=O)c1ccc([C@H](CCCC(=O)O)NC(=O)c2ccc(N3C[C@@H](Oc4ccc(C(F)(F)F)cc4)C[C@H]3COC(F)F)cc2)cc1` [Example 106, (S)-5-(4-((2S,4S)-2-((difluoromethoxy)methyl)-4-(4-(trifluoromethyl)phenoxy)pyrrolidin-1-yl)benzoylamino)-5-(4-(ethylsulfonyl)phenyl)valeric Acid], the IC50 is 52 nM. As for `CCOC[C@H]1CC[C@@H](c2ccc(C(F)(F)F)cc2)CN1c1ccc(C(=O)N[C@H](CC#N)c2ccc(S(=O)(=O)CC)cc2)cc1` [Example 108-2, N—((R)-2-cyano-1-(4-(ethylsulfonyl)phenyl)ethyl)-4-((2R,5S)-2-(ethoxymethyl)-5-(4-(trifluoromethyl)phenyl)piperidin-1-yl)benzamide], the concentration for half-maximal inhibition (IC50) came out at 24 nM. To `CCS(=O)(=O)c1ccc([C@@H](CC#N)NC(=O)c2ccc(N3C[C@@H](c4ccc(C(F)(F)F)cc4)CC[C@H]3COCC3CC3)cc2)cc1` [Example 109-1, N—((R)-2-cyano-1-(4-(ethylsulfonyl)phenyl)ethyl)-4-((2S,5R)-2-((cyclopropylmethoxy)methyl)-5-(4-(trifluoromethyl)phenyl)piperidin-1-yl)benzamide] belongs 7 nM. Under `CCC(F)(F)OC[C@@H]1CC[C@H](c2ccc(C(F)(F)F)cc2)CN1c1ccc(C(=O)N[C@H](CC#N)c2ccc(S(=O)(=O)CC)cc2)cc1` [Example 110-1, N—((R)-2-cyano-1-(4-(ethylsulfonyl)phenyl)ethyl)-4-((2S,5R)-2-((1,1-difluoropropoxy)methyl)-5-(4-(trifluoromethyl)phenyl)piperidin-1-yl)benzamide] stands 19 nM; under `CCC(F)(F)OC[C@H]1CC[C@@H](c2ccc(C(F)(F)F)cc2)CN1c1ccc(C(=O)N[C@H](CC#N)c2ccc(S(=O)(=O)CC)cc2)cc1` [Example 110-2, N—((R)-2-cyano-1-(4-(ethylsulfonyl)phenyl)ethyl)-4-((2R,5S)-2-((1,1-difluoropropoxy)methyl)-5-(4-(trifluoromethyl)phenyl)piperidin-1-yl)benzamide], 7 nM; under `CCS(=O)(=O)c1ccc([C@H](CC#N)NC(=O)c2ccc(N3C[C@H](c4ccc(C(F)(F)F)cc4)CC[C@H]3COC(F)F)cc2F)cc1` [Example 111-1, N—((S)-2-cyano-1-(4-(ethylsulfonyl)phenyl)ethyl)-4-((2S,5S)-2-((difluoromethoxy)methyl)-5-(4-(trifluoromethyl)phenyl)piperidin-1-yl)-2-fluorobenzamide], 16 nM. To `CCS(=O)(=O)c1ccc([C@H](CC#N)NC(=O)c2ccc(N3C[C@@H](c4ccc(C(F)(F)F)cc4)CC[C@H]3COC(F)F)c(F)c2)cc1` [Example 113-2, N—((S)-2-cyano-1-(4-(ethylsulfonyl)phenyl)ethyl)-4-((2S,5R)-2-((difluoromethoxy)methyl)-5-(4-(trifluoromethyl)phenyl)piperidin-1-yl)-3-fluorobenzamide] belongs 13 nM; to `CCS(=O)(=O)c1ccc([C@H](CC#N)NC(=O)c2ccc(N3C[C@@H](c4ccc(F)cc4)CC[C@H]3COC(F)F)cc2)cc1` [Example 114-2, N—((S)-2-cyano-1-(4-(ethylsulfonyl)phenyl)ethyl)-4-((2S,5R)-2-((difluoromethoxy)methyl)-5-(4-fluorophenyl)piperidin-1-yl)benzamide], 23 nM. Regarding `CCS(=O)(=O)c1ccc([C@H](CC#N)NC(=O)c2ccc(N3C[C@H](c4ccccc4)CC[C@H]3COC(F)F)cc2)cc1` [Example 115-2, N—((S)-2-cyano-1-(4-(ethylsulfonyl)phenyl)ethyl)-4-((2S,5S)-2-((difluoromethoxy)methyl)-5-phenylpiperidin-1-yl)benzamide], the IC50 came to 26 nM. As for `CCS(=O)(=O)c1ccc([C@H](CC#N)NC(=O)c2ccc(N3C[C@H](N4CCC(C(F)(F)F)CC4)CC[C@H]3COC(F)F)cc2)cc1` [Example 117-2, N—((S)-2-cyano-1-(4-(ethylsulfonyl)phenyl)ethyl)-4-((3′R,6′S)-6′-((difluoromethoxy)methyl)-4-(trifluoromethyl)-(1,3′-bipiperidin)-1′-yl)benzamide], the IC50 was 26 nM. For the compound `CCS(=O)(=O)c1ccc([C@H](CC#N)NC(=O)c2ccc(N3C[C@H](O)C[C@H]3COC(F)F)cc2)cc1` [Example 131, N—((S)-2-cyano-1-(4-(ethylsulfonyl)phenyl)ethyl)-4-((2S,4R) ((difluoromethoxy)methyl)-4-hydroxypyrrolidin-1-yl)benzamide], the concentration for half-maximal inhibition (IC50) worked out at 120 nM. To `CCS(=O)(=O)c1ccc([C@H](CC#N)NC(=O)c2ccc(C(O)(C(F)(F)F)C(F)(F)F)cc2)cc1` [Example 143, (S)—N-(2-cyano-1-(4-(ethylsulfonyl)phenyl)ethyl)-4-(1,1,1,3,3,3-hexafluoro-2-hydroxypropan-2-yl)benzamide] belongs 104 nM; to `CCS(=O)(=O)c1ccc([C@H](CNC(=O)OC)NC(=O)c2ccc(N3C[C@@H](Oc4ccc(C(F)(F)F)cc4)C[C@H]3COC(F)F)cc2)cc1` [Example 147, methyl ((R)-2-(4-((2S,4S)-2-((difluoromethoxy)methyl)-4-(4-(trifluoromethyl)phenoxy)pyrrolidin-1-yl)benzoylamino)-2-(4-(ethylsulfonyl)phenyl)ethyl)carbamate], 18.2 nM; to `CCS(=O)(=O)c1ccc([C@H](CNC=O)NC(=O)c2ccc(N3C[C@@H](Oc4ccc(C(F)(F)F)cc4)C[C@H]3COC(F)F)cc2)cc1` [Example 148], 15.2 nM. To `CCS(=O)(=O)c1ccc([C@H](COC(N)=O)NC(=O)c2ccc(N3C[C@@H](Oc4ccc(C(F)(F)F)cc4)C[C@H]3COC(F)F)cc2)cc1` [Example 149, (R)-2-(4-((2S,4S)-2-((difluoromethoxy)methyl)-4-(4-(trifluoromethyl)phenoxy)pyrrolidin-1-yl)benzoylamino)-2-(4-(ethylsulfonyl)phenyl)ethyl carbamate] belongs 7.7 nM; to `CCS(=O)(=O)c1ccc([C@H](COC(=O)NC)NC(=O)c2ccc(N3C[C@@H](Oc4ccc(C(F)(F)F)cc4)C[C@H]3COC(F)F)cc2)cc1` [Example 150, (R)-2-(4-((2S,4S)-2-((difluoromethoxy)methyl)-4-(4-(trifluoromethyl)phenoxy)pyrrolidin-1-yl)benzoylamino)-2-(4-(ethylsulfonyl)phenyl)ethyl methylcarbamate], 10 nM. To `[2H]C([2H])([2H])OC[C@@H]1C[C@H](Oc2ccc(C(F)(F)F)cc2)CN1c1ccc(C(=O)N[C@@H](CC#N)c2ccc(S(=O)(=O)CC)cc2)cc1` [Example 151, N—((S)-2-cyano-1-(4-(ethylsulfonyl)phenyl)ethyl)-4-((2S,4S)-2-((3,3,3-d3-methoxy)methyl)-4-(4-(trifluoromethyl)phenoxy)pyrrolidin-1-yl)benzamide] belongs 8.7 nM; to `CCS(=O)(=O)c1ccc([C@H](CC#N)NC(=O)c2ccc(N3C[C@@H](Oc4ccc(-n5cccn5)cc4)C[C@H]3COC(F)F)cc2)cc1` [Example 152, 4-((2S,4S)-4-(4-(1H-pyrazol-1-yl)phenoxy)-2-((difluoromethoxy)methyl)pyrrolidin-1-yl)-N—((S)-2-cyano-1-(4-(ethylsulfonyl)phenyl)ethyl)benzamide], 13.2 nM.
